Source: PMC12691695, “Functional insight into cyclin-dependent kinase (CDK)7 via chemical inhibition of the priority fungal pathogen Cryptococcus neoformans” (mBio, 2025)

Target: T1, CnCDK7; pulled-down CAK complex (CnCAK: CDK7-CycH-Mat1) (Cryptococcus neoformans, UniProt J9W126)
T1 construct: gene CNAG_06445; native trimeric CAK complex pulled down on mNeonGreen-Trap beads from C. neoformans; CDK7 tagged with mNeonGreen, CycH with V5, Mat1 with 6xHis; with Cyclin H
T1 sequence (J9W126 1-358): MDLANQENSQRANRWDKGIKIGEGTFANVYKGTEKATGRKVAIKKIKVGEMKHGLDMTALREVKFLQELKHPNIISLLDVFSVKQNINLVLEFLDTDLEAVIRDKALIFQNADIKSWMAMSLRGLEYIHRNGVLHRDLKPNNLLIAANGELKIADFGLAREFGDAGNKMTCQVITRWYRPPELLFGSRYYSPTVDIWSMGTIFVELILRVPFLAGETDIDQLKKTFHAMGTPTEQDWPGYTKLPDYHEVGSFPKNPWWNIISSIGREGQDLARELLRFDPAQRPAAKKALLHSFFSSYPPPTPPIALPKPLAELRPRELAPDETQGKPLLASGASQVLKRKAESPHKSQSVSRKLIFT
T1 sequence (J9VUP1 1-447 partner): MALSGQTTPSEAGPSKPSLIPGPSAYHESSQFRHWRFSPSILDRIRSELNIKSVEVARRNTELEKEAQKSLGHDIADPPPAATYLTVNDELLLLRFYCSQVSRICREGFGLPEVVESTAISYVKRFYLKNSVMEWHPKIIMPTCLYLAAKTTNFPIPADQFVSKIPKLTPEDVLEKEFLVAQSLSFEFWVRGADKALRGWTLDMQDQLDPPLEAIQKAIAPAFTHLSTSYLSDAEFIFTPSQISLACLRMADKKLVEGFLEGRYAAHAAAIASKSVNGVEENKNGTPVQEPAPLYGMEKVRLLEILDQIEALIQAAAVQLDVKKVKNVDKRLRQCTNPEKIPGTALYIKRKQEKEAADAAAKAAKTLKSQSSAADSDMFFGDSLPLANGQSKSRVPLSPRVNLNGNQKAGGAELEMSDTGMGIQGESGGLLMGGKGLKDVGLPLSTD
T1 sequence (J9VS06 1-372 partner): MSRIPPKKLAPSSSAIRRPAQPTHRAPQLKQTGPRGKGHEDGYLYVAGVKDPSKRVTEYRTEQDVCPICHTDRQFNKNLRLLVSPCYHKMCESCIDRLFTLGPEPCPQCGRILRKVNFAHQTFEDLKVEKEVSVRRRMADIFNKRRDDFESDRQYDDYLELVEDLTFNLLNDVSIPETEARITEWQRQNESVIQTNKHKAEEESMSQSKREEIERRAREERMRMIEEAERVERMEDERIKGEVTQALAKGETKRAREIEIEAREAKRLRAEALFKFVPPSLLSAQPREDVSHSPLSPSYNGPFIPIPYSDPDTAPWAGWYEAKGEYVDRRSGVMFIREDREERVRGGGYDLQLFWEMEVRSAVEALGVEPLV
Assay: Kinase-Glo ATP consumption, pulled-down CAK, […] min
Format: biochemical
Conditions: co-substrate 250 µM CDK7/9tide; 20 mM MgCl2, pH 7.5, room temperature; bead-bound complex

Nc1ncnc2c1ncn2[C@@H]1O[C@H](COP(=O)(O)OP(=O)(O)OP(=O)(O)O)[C@@H](O)[C@H]1O [ATP]
Kinase-Glo ATP consumption, pulled-down CAK, 300 min: ATP consumption (due to the phosphorylation of the peptide substrate by CDK7)
